The values that follow come from patent US5843999A, “2-phenylazulene derivatives and a manufacturing method of these compounds” (Kotobuki Seiyaku Co., Ltd., priority 1996, dated 1998).

In general, pIC50 refers to the IC50 on a negative log10 scale, so that one unit is a factor of ten. Read a low pIC50 as a high IC50.

pIC50: −log10 of the molar value.

One assay deals with T1, COX-2 (Homo sapiens, UniProt P35354).
T1 sequence (P35354 18-604): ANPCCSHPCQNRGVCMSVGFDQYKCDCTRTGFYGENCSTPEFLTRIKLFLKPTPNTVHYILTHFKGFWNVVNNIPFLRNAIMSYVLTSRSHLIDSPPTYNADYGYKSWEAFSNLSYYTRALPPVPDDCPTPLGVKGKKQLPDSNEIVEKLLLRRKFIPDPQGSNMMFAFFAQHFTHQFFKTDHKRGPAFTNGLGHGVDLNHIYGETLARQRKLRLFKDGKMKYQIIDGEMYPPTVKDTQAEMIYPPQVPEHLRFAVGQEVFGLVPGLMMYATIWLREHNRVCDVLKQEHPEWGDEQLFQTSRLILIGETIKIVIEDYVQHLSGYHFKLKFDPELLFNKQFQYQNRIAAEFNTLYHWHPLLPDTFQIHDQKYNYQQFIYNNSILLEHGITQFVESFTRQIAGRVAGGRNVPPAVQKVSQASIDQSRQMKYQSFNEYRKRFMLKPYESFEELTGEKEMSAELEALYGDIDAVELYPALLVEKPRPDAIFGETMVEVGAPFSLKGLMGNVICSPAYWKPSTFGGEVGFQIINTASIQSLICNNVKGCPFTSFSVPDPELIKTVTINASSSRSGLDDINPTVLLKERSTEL
Nature of the assay: Inhibitory activity on COX-2 (PGE2 production from arachidonic acid, PGE2 ELISA; Needleman method). It counts as biochemical. Conditions: 1 mM arachidonic acid, 1 μM hematin, pH 8.0, 37° C., 10 min. As to the method:
(§1) Pharmacological experiment are as follows. Inhibitory activity of compounds on COX-1 and COX-2 were assayed according to the method of Needleman (J. Biol. Chem., 254, 9772, 1979). One unit of COX-1 or COX-2 enzyme, suspended with Tris-HCl buffer (pH 8.0, 500 μl) containing 1 μM hematin as co-factor, was incubated with compound and 1 mM arachidonic acid at 37° C. for 10 min. The reaction was stopped with 50 mM indomethacin (50 μl), and amounts of PGE2 in the reaction mixture was assayed using PGE2 ELISA system.
Background: In an ELISA, binding on a coated surface is turned into a signal by an enzyme label.

Another assay addresses COX-1 (Homo sapiens, UniProt P23219). Kind of assay: Inhibitory activity on COX-1 (PGE2 production from arachidonic acid, PGE2 ELISA; Needleman method). Conditions: 1 mM arachidonic acid, 1 μM hematin, pH 8.0, 37° C., 10 min. It counts as biochemical. As for the experimental part: as §1

Sequence of COX-1 (P23219 24-599): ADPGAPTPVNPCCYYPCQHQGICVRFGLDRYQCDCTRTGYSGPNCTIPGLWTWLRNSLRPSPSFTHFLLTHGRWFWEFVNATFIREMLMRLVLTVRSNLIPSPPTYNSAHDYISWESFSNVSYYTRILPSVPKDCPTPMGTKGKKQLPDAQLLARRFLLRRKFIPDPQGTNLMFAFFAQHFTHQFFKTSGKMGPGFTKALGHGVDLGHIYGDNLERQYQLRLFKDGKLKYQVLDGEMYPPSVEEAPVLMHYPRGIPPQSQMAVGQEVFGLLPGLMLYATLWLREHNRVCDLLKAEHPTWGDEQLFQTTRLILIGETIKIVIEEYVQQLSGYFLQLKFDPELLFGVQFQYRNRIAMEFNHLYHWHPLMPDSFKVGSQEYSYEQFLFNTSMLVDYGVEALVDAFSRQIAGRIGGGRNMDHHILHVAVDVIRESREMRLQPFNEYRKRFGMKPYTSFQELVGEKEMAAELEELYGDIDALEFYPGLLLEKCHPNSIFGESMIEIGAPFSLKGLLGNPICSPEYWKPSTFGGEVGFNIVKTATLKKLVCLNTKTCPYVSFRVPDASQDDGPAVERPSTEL

For `COc1ccc(-c2c3cccccc-3cc2-c2ccc(S(N)(=O)=O)cc2)cc1OC` [Compound 39, 4-[1-(3,4-Dimethoxyphenyl)azulene-2-yl]phenylsulfonamide], the figures for the pIC50 at COX-2 and at COX-1 were 6.54 and under 5.00, respectively.

With `COc1ccc(-c2c3cccccc-3cc2-c2ccc(S(N)(=O)=O)cc2)cc1F` [Compound 35, 4-[l-(3-Fluoro-4-methoxyphenyl)azulene-2-yl]phenylsulfonamide], the pIC50 against COX-2 is 7.66; against COX-1 it was 5.17.

For the compound `CS(=O)(=O)c1ccc(-c2cc3cccccc-3c2-c2ccc(F)c(Cl)c2)cc1` [Compound 11, 1-(3-Chloro-4-fluorophenyl)-2-(4-methylsulfonylphenyl)azulene], the negative logarithm of the IC50 (pIC50) was 7.08 on COX-2 and under 5.00 on COX-1.

For `CS(=O)(=O)c1ccc(-c2cc3cccccc-3c2-c2ccc(Cl)cc2)cc1` [Compound 4, 1-(4-Chlorophenyl)-2-(4-methylsulfonylphenyl)azulene], the values for the pIC50 against COX-2 and on COX-1 were 7.52 and under 5.00, respectively.

On to `CS(=O)(=O)c1ccc(-c2cc3cccccc-3c2-c2cccc(Cl)c2)cc1` [Compound 3, 1-(3-Chlorophenyl)-2-(4-methylsulfonylphenyl)azulene], for which the pIC50 is 8.03 against COX-2 and under 5.00 on COX-1.

As for `Cc1ccc(-c2c3cccccc-3cc2-c2ccc(S(C)(=O)=O)cc2)cc1Cl` [Compound 12, 1-(3-Chloro-4-methylphenyl)-2-(4-methylsulfonylphenyl)azulene], the pIC50 against COX-2 is 8.31; against COX-1, under 5.00.

Take `COc1cccc(-c2c3cccccc-3cc2-c2ccc(S(C)(=O)=O)cc2)c1` [Compound 9, 1-(3-Methoxyphenyl)-2-(4-methylsulfonylphenyl)azulene]: the results for the pIC50 on COX-2 and against COX-1 were 5.32 and under 5.00, respectively.

As for `Cc1ccc(-c2c3cccccc-3cc2-c2ccc(S(N)(=O)=O)cc2)cc1Cl` [Compound 33, 4-[1-(3-Chloro4-methylphenyl)azulene-2-yl]phenylsulfonamide], the pIC50 is 8.59 at COX-2 and 5.39 against COX-1.

As to `COc1ccc(-c2c3cccccc-3cc2-c2ccc(S(C)(=O)=O)cc2)cc1OC` [Compound 38, 1-(3,4-Dimethoxyphenyl)-2-(4-methylsulfonylphenyl)azulene], the pIC50 was 7.19 at COX-2 and under 5.00 at COX-1.

On to `Cc1cccc(-c2c3cccccc-3cc2-c2ccc(S(C)(=O)=O)cc2)c1` [Compound 7, 1-(3-Methylphenyl)-2-(4-methylsulfonylphenyl)azulene], for which the results for the pIC50 against COX-2 and at COX-1 were 7.32 and under 5.00, respectively.

Take `COc1ccc(-c2c3cccccc-3cc2-c2ccc(S(C)(=O)=O)cc2)cc1` [Compound 10, 1-(4-Methoxyphenyl)-2-(4-methylsulfonylphenyl)azulene]: the pIC50 on COX-2 is 5.43; at COX-1, under 5.00.

Take `NS(=O)(=O)c1ccc(-c2cc3cccccc-3c2-c2ccc(F)c(Cl)c2)cc1` [Compound 32, 4-[1-(3-Chloro-4-fluorophenyl)azulene-2-yl]phenylsulfonamide]: the pIC50 is 7.92 at COX-2 and under 5.00 against COX-1.

With `COc1cccc(-c2c3cccccc-3cc2-c2ccc(S(N)(=O)=O)cc2)c1` [Compound 31, 4-[1-(3-Methoxyphenyl)azulene-2-yl]phenylsulfonamide], the pIC50 against COX-2 is 5.60; on COX-1 it was under 5.00.

Consider `CS(=O)(=O)c1ccc(-c2cc3cccccc-3c2-c2ccc(F)cc2)cc1` [Compound 6, 1-(4-Fluorophenyl)-2-(4-methylsulfonylphenyl)azulene], for which the pIC50 on COX-2 is 5.92; against COX-1 it was under 5.00.

With `CS(=O)(=O)c1ccc(-c2cc3cccccc-3c2-c2ccccc2)cc1` [Compound 1, 2-(4-Methylsulfonylphenyl)-1-phenylazulene], the results for the pIC50 against COX-2 and against COX-1 were 6.12 and under 5.00, respectively.

As for `NS(=O)(=O)c1ccc(-c2cc3cccccc-3c2-c2ccccc2)cc1` [Compound 27, 4-(1-Phenylazulene-2-yl)phenylsulfonamide], the figures for the pIC50 against COX-2 and on COX-1 were 8.07 and under 5.00, respectively.

For the compound `Cc1cccc(-c2c3cccccc-3cc2-c2ccc(S(N)(=O)=O)cc2)c1` [Compound 30, 4-[1-(3-Methylphenyl)azulene-2-yl]phenylsulfonamide], the figures for the negative-log IC50 (pIC50) on COX-2 and against COX-1 were 6.30 and 5.37, respectively.

Turning to `CS(=O)(=O)c1ccc(-c2c(F)c3cccccc-3c2-c2ccccc2)cc1` [Compound 21, 1-Fluoro-2-(4-methylsulfonylphenyl)-3-phenylazulene], the pIC50 against COX-2 was 5.10; at COX-1 it was under 5.00.

In the case of `COc1ccc(-c2c3cccccc-3cc2-c2ccc(S(N)(=O)=O)cc2)cc1Cl` [Compound 34, 4-[1-(3-Chloro4-methoxyphenyl)azulene-2-yl]phenylsulfonamide], the results for the pIC50 on COX-2 and on COX-1 were 8.47 and 6.02, respectively.

Take `NS(=O)(=O)c1ccc(-c2cc3cccccc-3c2-c2cccc(F)c2)cc1` [Compound 29, 4-[1-(3-Fluorophenyl)azulene-2-yl]phenylsulfonamide]: the pIC50 is 6.11 at COX-2 and 5.33 at COX-1.

Consider `NS(=O)(=O)c1ccc(-c2cc3cccccc-3c2-c2cccc(Cl)c2)cc1` [Compound 28, 4-[1-(3-Chlorophenyl)azulene-2-yl]phenylsulfonamide], for which the pIC50 at COX-2 was 5.59; at COX-1, 5.12.

Regarding `COc1ccc(-c2c3cccccc-3cc2-c2ccc(S(C)(=O)=O)cc2)cc1F` [Compound 14, 1-(3-Fluoro-4-methoxyphenyl)-2-(4-methylsulfonylphenyl)azulene], the pIC50 against COX-2 is 8.08; at COX-1, under 5.00.

`CS(=O)(=O)c1ccc(-c2cc3cccccc-3c2-c2ccccc2Cl)cc1` [Compound 2, 1-(2-Chlorophenyl)-2-(4-methylsulfonylphenyl)azulene]: the pIC50 against COX-2 is 5.16; on COX-1, under 5.00.

As for `Cc1ccc(-c2c3cccccc-3cc2-c2ccc(S(C)(=O)=O)cc2)cc1` [Compound 8, 1-(4-Methylphenyl)-2-(4-methylsulfonylphenyl)azulene], the negative-log IC50 (pIC50) is 5.13 against COX-2 and under 5.00 on COX-1.

As for `COc1ccc(-c2c3cccccc-3cc2-c2ccc(S(C)(=O)=O)cc2)cc1Cl` [Compound 13, 1-(3-Chloro4-methoxyphenyl)-2-(4-methylsulfonylphenyl)azulene], the results for the pIC50 at COX-2 and at COX-1 were 7.72 and under 5.00, respectively.

`CS(=O)(=O)c1ccc(-c2cc3cccccc-3c2-c2cccc(F)c2)cc1` [Compound 5, 1-(3-Fluorophenyl)-2-(4-methylsulfonylphenyl)azulene]: the pIC50 on COX-2 and on COX-1 was under 5.00 in each case.
